# In patent US11559504B2, “Ceramide nanoliposomes, compositions and methods of using for immunotherapy” (THE PENN STATE RESEARCH FOUNDATION, priority 2017, dated 2023):
# Assays:
# G-BMMs and M-BMMs = assay: ROS in bone marrow-derived macrophages in vitro, ROS-Glo H2O2 luminescent assay; format: cell-based, C57BL/6 mice; settings: ceramides of carbon-chain lengths 6 to 22, overnight incubation
# Experimental: Size-matched TBMs were randomly assigned to one of three groups: vehicle, LipC6, or no injection. Two weeks after injection, splenic leukocytes and TILs were prepared from the spleen and the perfused tumors. The cells were incubated for 45 mins at 37° C., then washed three times with media, with the remaining adherent cells being >90% CD11b positive (macrophages). Intracellular ROS were measured with Glo™ H2O2 assay. Briefly, H2O2 substrate was added to each well followed by addition of ROS-Glo™ detection solution. After incubation for 20 minutes at RT, relative luminescence was measured to assess ROS level in TAMs (A) and splenic macrophages (B). Similarly, bone marrow-derived macrophages (BMMs) were prepared in vitro by stimulating bone marrow cells from wild type C57BL/6 mice with GMCSF (G-BMMs) and MCSF (M-BMMs) for 6 days.
# G-BMMs (A) and M-BMMs (B) were prepared in vitro by stimulating bone marrow cells from wild type C57BL/6 mice with GMCSF and MCSF for 6 days. After incubation with the ceramides of different carbon-chain lengths varying from 6 to 22 overnight, the relative ROS level in G-BMMs (C) and M-BMMs (D) was measured with a luminescence assay in accordance with the manufacturer's instruction. n=3; error bars represent±SD. * p<0.05.
# Mice. […] Small tumors can be detected by MRI two months after hepatocyte inoculation. […]
# GM-BMMs = assay: M1 cytokine mRNA in GM-BMMs with LipC6, NAC or both, RT-PCR; format: cell-based, C57BL/6 mice; settings: 50 μM NAC, 24 hours
# Experimental: GM-BMMs were prepared in vitro by stimulating bone marrow derived monocytes from wild type C57BL/6 mice with 50 ng/mL GMCSF for 6 days. GM-BMMs were incubated for 24 hours with 25 μM vehicle, 25 μM LipC6, 50 μM NAC or LipC6 plus NAC. Total RNA was extracted and subjected to RT-PCR to quantitate M1 cytokines including iNOS (B), IL-12 (C), IFN-γ (D) and TNF-α (E). n=3, *=p<0.05 and **=p<0.001 using Student's t-test.
# Total RNA extraction and real-time PCR. Total RNAs were extracted using Trizol reagent (Invitrogen, Carlsbad, Calif.) according to the manufacturer's instructions. 2 μg of total RNAs were used for cDNA synthesis with High Capacity cDNA Reverse Transcription Kits (Applied Biosystems, CA). Each PCR was performed in a 20 μl reaction mixture containing SYBR Green I (Roche, Basel, Switzerland). Real-time PCR was performed with CFX96 Real-Time PCR Detection System (Bio-Rad, CA). Reactions were run in triplicate in three independent experiments. Expression data were normalized to the geometric mean of housekeeping gene 18S rRNA to control the variability in expression levels and were analyzed using the 2^ΔΔCT method.
# To further study if ROS signaling is required for LipC6-mediated modulation of macrophages, we compared the function of LipC6 and the ROS specific inhibitor N-acetyl-L-cysteine (NAC) in modulating M1 cytokine production in GMCSF-induced macrophages.
SMILES,suppressive effect on ROS production in BMMs (G-BMMs and M-BMMs),M1 cytokine production profile compared with LipC6 (GM-BMMs)
"CCCCCCCCCCCCC/C=C/[C@@H](O)[C@H](CO)NC(=O)CCCCC [C6-ceramide, N-hexanoyl-D-erythro-sphinogosine]",suppressive effect,
CCCCCCCCCCCCC/C=C/[C@@H](O)[C@H](CO)NC(=O)CCCCCCC [C8-ceramide],suppressive effect,
"CC(=O)N[C@@H](CS)C(=O)O [NAC, N-acetyl-L-cysteine]",,similar
